Measurements taken from patent US10160762B2, “6-alkyl dihydropyrazolopyrimidinone compounds as PDE2 inhibitors” (Merck Sharp & Dohme Corp., priority 2015, dated 2018).
Like-named read-outs stand apart in the source and are kept apart here.

Molecular target: T1, Rhesus PDE2A3 (Macaca mulatta, UniProt B3VTJ2)
T1 construct: made in house; host or cells: AD293 cells, transient transfection; supernatant of sonicated lysate
T1 sequence (B3VTJ2 1-941): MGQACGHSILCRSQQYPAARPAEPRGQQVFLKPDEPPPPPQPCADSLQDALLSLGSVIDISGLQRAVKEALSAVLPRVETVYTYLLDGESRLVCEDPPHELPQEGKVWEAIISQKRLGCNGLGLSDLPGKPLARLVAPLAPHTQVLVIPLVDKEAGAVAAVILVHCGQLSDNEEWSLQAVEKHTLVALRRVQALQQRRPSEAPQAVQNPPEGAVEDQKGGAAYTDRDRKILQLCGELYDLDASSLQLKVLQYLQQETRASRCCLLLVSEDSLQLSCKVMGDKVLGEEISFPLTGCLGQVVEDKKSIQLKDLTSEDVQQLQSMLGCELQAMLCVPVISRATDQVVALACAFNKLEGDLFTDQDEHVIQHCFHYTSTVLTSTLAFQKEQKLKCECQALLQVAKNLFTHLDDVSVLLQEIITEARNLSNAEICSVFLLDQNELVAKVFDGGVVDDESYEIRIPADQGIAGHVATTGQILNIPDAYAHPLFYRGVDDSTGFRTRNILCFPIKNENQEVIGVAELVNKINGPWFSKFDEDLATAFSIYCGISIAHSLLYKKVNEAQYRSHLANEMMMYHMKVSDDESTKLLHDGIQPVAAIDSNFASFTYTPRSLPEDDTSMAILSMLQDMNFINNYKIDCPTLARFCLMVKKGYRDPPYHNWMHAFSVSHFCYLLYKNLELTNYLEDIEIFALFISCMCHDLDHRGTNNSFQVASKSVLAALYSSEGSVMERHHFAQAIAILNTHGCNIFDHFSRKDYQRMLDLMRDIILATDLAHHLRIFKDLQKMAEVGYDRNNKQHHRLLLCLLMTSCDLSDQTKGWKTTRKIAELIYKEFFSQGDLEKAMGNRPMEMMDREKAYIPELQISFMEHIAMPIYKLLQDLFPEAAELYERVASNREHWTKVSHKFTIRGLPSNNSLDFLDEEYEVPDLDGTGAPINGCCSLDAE
Experiment: PDE2 fluorescence polarization (IMAP FP) inhibition assay, rhesus PDE2A3
Format: biochemical, rhesus macaque
Procedure: The activity of the compounds in accordance with the present invention as PDE2 inhibitors may be readily determined using a fluorescence polarization (FP) methodology (Huang, W., et al., J. Biomol Screen, 2002, 7: 215).
The PDE2 inhibitory activity of the compounds of the present invention was determined in accordance with the following experimental method. Rhesus PDE2A3 was amplified from rhesus macaque brain cDNA (Biochain Institute, Hayward, Calif.) using primers based on human PDE2A sequence (accession NM_002599.3) where the forward primer containing a Kozak consensus was 5′-[…]-3′ and the reverse primer was 5′-[…]-3′. Amplification with Easy-A High-Fidelity PCR cloning enzyme (Stratagene, La Jolla, Calif.) was 95° C. for 2 minutes followed by thirty three cycles of 95° C. for 40 seconds, 52° C. for 30 seconds, and 72° C. for 2 minutes 48 seconds. Final extension was 72° C. for 7 minutes. The PCR product was TA cloned into pcDNA3.3-TOPO (Invitrogen, Carlsbad, Calif.) according to standard protocol. A consensus sequence was developed from multiple clones and then deposited into GenBank (EU812167). AD293 cells (Stratagene, La Jolla, Calif.) with 70-80% confluency were transiently transfected with rhesus PDE2A3/pcDNA3.3-TOPO using Lipofectamine 2000 according to manufacturer specifications (Invitrogen, Carlsbad, Calif.). Cells were harvested 48 hours post-transfection and lysed by sonication (setting 3, 10×5 sec pulses) in a buffer containing 20 mM HEPES pH 7.4, 1 mM EDTA and Complete Protease Inhibitor Cocktail Tablets (Roche, Indianapolis, Ind.). Lysate was collected by centrifugation at 75,000×g for 20 minutes at 4° C. and supernatant utilized for evaluation of PDE2 activity. The fluorescence polarization assay for cyclic nucleotide phosphodiesterases was performed using an IMAP® FP kit supplied by Molecular Devices, Sunnyvale, Calif. (product #R8139). […] Assays were performed at room temperature in 384-well microtiter plates with an incubation volume of 20.2 μL. Solutions of test compounds were prepared in DMSO and serially diluted with DMSO to yield 8 μL of each of 10 solutions differing by 3-fold in concentration, at 32 serial dilutions per plate. […] 0% of inhibition is determined by using DMSO (1% final concentrations).
A Labcyte Echo 555 (Labcyte, Sunnyvale, Calif.) is used to dispense 200 nL from each well of the titration plate to the 384 well assay plate. Ten microliters of a solution of enzyme (1/2000 final dilution from aliquots; sufficient to produce 20% substrate conversion) was added to the assay plate. Next 10 uL of a separate solution of the substrate FAM-labeled cAMP (50 nM final concentration product # R7506 from Molecular Devices) and the activator cGMP (1 uM final concentration), prepared in the assay buffer (10 mM Tris HCl, pH 7.2, 10 mM MgCl2, 0.05% NaN3 0.01% Tween-20, and 1 mM DTT) was added to the assay plate and shaken to mix. The reaction is allowed to proceed at room temperature for 60 minutes. A binding solution is then made from the kit components, comprised of 80% Solution A, 20% Solution B and binding reagent at a volume of 1/600 the total binding solution. The enzymatic reaction is stopped by addition of 60 μL of the binding solution to each well of the assay plates and the plates are sealed and shaken for 30 seconds. The plate was incubated at room temperature for at least one hour prior to determining the fluorescence polarization (FP). The parallel and perpendicular fluorescence of each well of the plate was measured using a Tecan Genios Pro plate reader (Tecan, Switzerland) or Perkin Elmer EnVision™ plate reader (Waltham, Mass.). Fluorescence polarization (mP) was calculated from the parallel (S) and perpendicular (P) fluorescence of each sample well and the analogous values for the median control well, containing only substrate (So and Po), using the following equation: Polarization(mP)=1000*(S/So−P/Po)/(S/So+P/Po).

[1] = Lab B, read-out: Rhesus PDE2 Ki (nM) Lab B
[2] = Lab A, read-out: Rhesus PDE2 Ki (nM) Lab A

Cc1nc2c(c(C)nn2C(C)CN(C)c2ccc(C(F)(F)F)cc2)c(=O)[nH]1 (stereo not shown) [Example 331, 3,6-Dimethyl-1-(1-(methyl(4-(trifluoromethyl)phenyl)amino)propan-2-yl)-1H-pyrazolo[3,4-d]pyrimidin-4(5H)-one]
Ki [1]: 1440 nM

Cc1nn(C(C)c2ccc(C(F)(F)F)cc2)c2nc(C(C)O)[nH]c(=O)c12 (stereo not shown) [Example 29, 6-(1-Hydroxyethyl)-3-methyl-1-(1-(4-(trifluoromethyl)phenyl)ethyl)-1H-pyrazolo[3,4-d]pyrimidin-4(5H)-one]
Ki [2]: 583 nM

Cc1nc2c(c(CO)nn2C(c2ccc(C(F)(F)F)cc2)C(C)(C)C)c(=O)[nH]1 (single isomer, unassigned) [Example 82, (R)- or (S)-1-(2,2-Dimethyl-1-(4-(trifluoromethyl)phenyl)-propyl)-3-(hydroxymethyl)-6-methyl-1H-pyrazolo[3,4-d]pyrimidin-4(5H)-one]
Ki [1]: 289 nM

Cc1nc2c(c(CO)nn2C(c2ccc(C(F)(F)F)c(F)c2)C(C)(C)C)c(=O)[nH]1 (single isomer, unassigned) [Example 128, (R)- or (S)-1-(1-(3-Fluoro-4-(trifluoromethyl)phenyl)-2,2-dimethylpropyl)-3-(hydroxyl-methyl)-6-methyl-1H-pyrazolo-[3,4-d]pyrimidin-4(5H)-one]
Ki [1]: 413 nM

CC(c1ccc(C(F)(F)F)cc1)n1nc(COCc2ccccc2)c2c(=O)[nH]c(C(F)F)nc21 (stereo not shown) [Example 283, 3-((Benzyloxy)methyl)-6-(difluoromethyl)-1-(1-(4-(trifluoromethyl)phenyl)ethyl)-1H-pyrazolo[3,4-d]pyrimidin-4(5H)-one]
Ki [1]: 387 nM

Cc1nc2c(c(CO)nn2C(c2ccc(C(F)(F)F)c(F)c2)C(C)C)c(=O)[nH]1 (single isomer, unassigned) [Example 86, (R)- or (S)-1-(1-(3-Fluoro-4-(trifluoromethyl)phenyl)-2-methylpropyl)-3-(hydroxymethyl)-6-methyl-1H-pyrazolo[3,4-d]pyrimidin-4(5H)-one]
Ki [1]: 436 nM

CC(=O)OCc1nn(C(C)c2ccc(C(F)(F)F)cc2)c2nc(C)[nH]c(=O)c12 (stereo not shown) [Example 319, (6-Methyl-4-oxo-1-(1-(4-(trifluoromethyl)phenyl)ethyl)-4,5-dihydro-1H-pyrazolo[3,4-d]pyrimidin-3-yl)methyl acetate]
Ki [1]: 283 nM

Cc1nc2c(c(CO)nn2C(c2ccc(C(F)(F)F)cc2)C2(C)CC2)c(=O)[nH]1 (single isomer, unassigned) [Example 25, (S)- or (R)-3-(Hydroxymethyl)-6-methyl-1-((1-methylcyclopropyl)(4-(trifluoromethyl)phenyl)methyl)-1H-pyrazolo[3,4-d]pyrimidin-4(5H)-one]
Ki [1]: 160 nM

Cc1nc2c(c(CC(F)(F)F)nn2C(c2ccc(C(F)(F)F)cc2)C2(C)CC2)c(=O)[nH]1 (single isomer, unassigned) [Example 58, (R)- or (S)-6-Methyl-1-((1-methylcyclopropyl)(4-(trifluoromethyl)phenyl)methyl)-3-(2,2,2-trifluoroethyl)-1H-pyrazolo[3,4-d]pyrimidin-4(5H)-one]
Ki [1]: 1080 nM

Cc1nc2c(c(C)nn2CC(O)c2ccc(C(F)(F)F)cc2)c(=O)[nH]1 (stereo not shown) [Example 335, 1-(2-Hydroxy-2-(4-(trifluoromethyl)phenyl)ethyl)-3,6-dimethyl-1H-pyrazolo[3,4-d]pyrimidin-4(5H)-one]
Ki [2]: > 1000 nM

Cc1nc2c(c(C)nn2CC(=O)Nc2ccc(C(F)(F)F)cc2)c(=O)[nH]1 [Example 337, 2-(3,6-Dimethyl-4-oxo-4,5-dihydro-1H-pyrazolo[3,4-d]pyrimidin-1-yl)-N-(4-(trifluoromethyl)phenyl)acetamide]
Ki [2]: > 1000 nM

Cc1nc2c(c(CF)nn2C(c2ccc(C(F)(F)F)cc2)C(C)(C)C)c(=O)[nH]1 (single isomer, unassigned) [Example 233, (R)- or (S)-1-(2,2-Dimethyl-1-(4-(trifluoromethyl)phenyl)propyl)-3-(fluoromethyl)-6-methyl-1H-pyrazolo[3,4-d]pyrimidin-4(5H)-one]
Ki [1]: 678 nM

Cc1nc2c(c(CN)nn2C(C)c2ccc(C(F)(F)F)cc2)c(=O)[nH]1 (single isomer, unassigned) [Example 274]
Ki [1]: ~14500 nM

CC(c1ccc(C(F)(F)F)cc1)n1nc(CO)c2c(=O)[nH]c(-c3cnn(C)c3)nc21 (racemic) [Example 295, 3-(Hydroxymethyl)-6-(1-methyl-1H-pyrazol-4-yl)-1-{1-[4-(trifluoromethyl)phenyl]ethyl}-1,5-dihydro-4H-pyrazolo[3,4-d]pyrimidin-4-one]
Ki [1]: > 2970 nM

Cc1nc2c(c(CF)nn2C(c2ccc(C(F)(F)F)cc2)C2(C)CC2)c(=O)[nH]1 (single isomer, unassigned) [Example 208, (R)- or (S)-3-(Fluoromethyl)-6-methyl-1-((1-methylcyclopropyl)(4-(trifluoromethyl)phenyl)methyl)-1H-pyrazolo[3,4-d]pyrimidin-4(5H)-one]
Ki [1]: 149 nM

Cc1nc2c(c(CCO)nn2C(C)c2ccc(C(F)(F)F)cc2)c(=O)[nH]1 (single isomer, unassigned) [Example 249]
Ki [1]: 245 nM

Cc1nc2c(c(CC(F)(F)F)nn2C(c2ccc(C(F)(F)F)cc2)C(C)(C)C)c(=O)[nH]1 (single isomer, unassigned) [Example 56, (R)- or (S)-1-(2,2-Dimethyl-1-(4-(trifluoromethyl)phenyl)propyl)-6-methyl-3-(2,2,2-trifluoroethyl)-1H-pyrazolo[3,4-d]pyrimidin-4(5H)-one]
Ki [1]: 6020 nM

Cc1nc2c(c(C)nn2C(CCCc2ccccc2)c2sc(C)nc2C)c(=O)[nH]1 (stereo not shown) [Example 339, 1-[1-(2,4-dimethyl-1,3-thiazol-5-yl)-4-phenylbutyl]-3,6-dimethyl-1,5-dihydro-4H-pyrazolo[3,4-d]pyrimidin-4-one]
Ki [2]: 292 nM

Cc1nc2c(c(C)nn2C(C)C(=O)Nc2ccc(C(F)(F)F)cc2)c(=O)[nH]1 (stereo not shown) [Example 334, 2-(3,6-Dimethyl-4-oxo-4,5-dihydropyrazolo[3,4-d]pyrimidin-1-yl)-N-(4-(trifluoromethyl)phenyl)propanamide]
Ki [2]: > 1000 nM
